{"source": "patent US7985837B2", "about": "“Two component Bacillus lantibiotic and methods for producing and using the same” (The Board of Trustees of the University of Illinois, priority 2006, dated 2011)", "key": {"[1]": {"test_system": "Lactococcus lactis CNRZ 117", "experiment": "Bioactivity assay, solid agar medium test (zones of inhibition)", "type": "cell-based", "settings": "for zone of inhibition, both modified peptides together: prepared in vitro: HalA1-Xa/HalA2-Xa modified by HalM1/HalM2, leader removed by Factor Xa, both peptides applied", "method": "Bioactivity Assay. The inhibitory activity of haloduracin isolated from the producing strain and prepared in vitro was assayed using the solid agar medium test. Liquid molten GM17 agar (4% M17, 0.5% glucose, 1.5% agar) was cooled to 50° C. and seeded with an overnight culture of the indicator strain Lactococcus lactis CNRZ 117. After agar solidification in a Petri dish, samples were applied to a small well created in the medium. Assay samples were typically concentrated to dryness using a speed vac and rehydrated in a small volume (5-15 μL) of sterile water for application purposes. The cell-free solution isolated from B. halodurans C-125 was applied directly to the plate without further concentration. Plates were incubated overnight at room temperature and zones of inhibition were observed the next day."}, "[2]": {"settings": "Ltn1 and Ltn2 acting in synergy in a 1:1 ratio; cited from earlier work"}}, "data": [{"substance": "haloduracin: two-component lantibiotic of Bacillus halodurans C-125 composed of the modified peptides Hal1 (SEQ ID NO:5) and Hal2 (SEQ ID NO:6)", "values": [{"measurement": "zone of growth inhibition", "setting": "[1]; cell-free supernatant isolated from producer strain B. halodurans C-125, applied to indicator strain", "value": "a zone of growth inhibition was produced"}, {"measurement": "zone of inhibition, both modified peptides together", "setting": "[1]", "value": "comparable to the bactericidal effects exhibited by the peptides isolated from the producer strain"}, {"measurement": "zone of inhibition, both modified peptides together", "setting": "[1]; listed as haloduracin peptides prepared in vitro", "value": "zone of inhibition comparable to that produced by Hal1 and Hal2 isolated from B. halodurans"}]}, {"substance": "Hal1: mature haloduracin alpha peptide from HalA1, SEQ ID NO:5; three dehydrations and one disulfide", "values": [{"measurement": "zones of growth inhibition / antimicrobial activity after iodoacetamide modification", "setting": "[1]; peptides isolated from B. halodurans, reduced and alkylated with iodoacetamide (Hal1 two adducts, Hal2 zero adducts), excess IAA removed", "value": "did not abolish antimicrobial activity"}]}, {"substance": "lacticin 3147", "values": [{"measurement": "antibacterial activity", "setting": "[2]", "value": "nanomolar antibacterial activity"}]}]}
